From US10336762B2 (priority 2017, dated 2019)
Where two headings read alike, the source gives them in different places.

Key:
IRAK4 enzyme = IRAK4 enzyme (Homo sapiens (Human), UniProt Q9NWZ3); test: biochemical; format: biochemical; conditions: IRAK4 enzyme, 500 μM ATP
TNFα = test: cells; format: cell-based, human; conditions: Homo sapiens, Monocyte, LPS-stimulated human monocytes, read-out: EC50 TNF

Chain of IRAK4 enzyme (Q9NWZ3 whole entry): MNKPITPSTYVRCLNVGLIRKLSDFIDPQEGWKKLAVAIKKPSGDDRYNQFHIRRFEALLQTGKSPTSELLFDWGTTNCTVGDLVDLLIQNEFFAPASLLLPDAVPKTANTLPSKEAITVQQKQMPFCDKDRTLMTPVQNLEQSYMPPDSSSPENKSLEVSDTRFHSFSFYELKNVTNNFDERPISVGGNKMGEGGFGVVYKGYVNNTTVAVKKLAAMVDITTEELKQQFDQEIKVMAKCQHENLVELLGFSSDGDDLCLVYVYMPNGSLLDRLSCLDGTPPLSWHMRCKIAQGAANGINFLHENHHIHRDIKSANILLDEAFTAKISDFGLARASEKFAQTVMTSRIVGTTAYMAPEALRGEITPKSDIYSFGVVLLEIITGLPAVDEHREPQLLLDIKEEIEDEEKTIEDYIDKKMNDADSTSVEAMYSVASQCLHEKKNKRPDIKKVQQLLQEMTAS

Row | SMILES | IC50 (IRAK4 enzyme; TR-FRET (HTRF)) [nM] | EC50 (TNFα; TNFα content) [nM] | IC50 (IRAK4 enzyme; TR-FRET) [nM] | EC50 (TNFα; TNFα by TR-FRET) [nM]
1 | COC(=O)N1CC[C@@H](Nc2cc(-c3ccc4cc(C#N)cnn34)ncc2C(=O)NC[C@@H](F)C(C)(C)O)C1 [Example 752, (R)-methyl 3-((2-(3-cyano-pyrrolo[1,2-b]pyridazin-7-yl)-5-(((R)-2-fluoro-3-hydroxy-3-methylbutyl)carbamoyl)pyridin-4-yl)amino)pyrrolidine-1-carboxylate] | < 1 | 80 |  | 
2 | CC(C)(O)[C@H](F)CNC(=O)c1cnc(-c2ccc3cc(C#N)cnn23)cc1NC1Cc2ccncc2C1 (stereo partly drawn) [Example 672, 6-(3-cyanopyrrolo[1,2-b]pyridazin-7-yl)-4-((6,7-dihydro-5H-cyclopenta[c]pyridin-6-yl)amino)-N-((R)-2-fluoro-3-hydroxy-3-methylbutyl)nicotinamide] | < 1 | 66 |  | 
3 | CC(C)(O)[C@H](F)CNC(=O)c1cnc(-c2ccc3cc(C#N)cnn23)cc1NC[C@H]1CCN(CC(F)(F)F)C1 [Example 901, 6-(3-cyanopyrrolo[1,2-b]pyridazin-7-yl)-N-((R)-2-fluoro-3-hydroxy-3-methylbutyl)-4-((((R)-1-(2,2,2-trifluoroethyl)pyrrolidin-3-yl)methyl)amino)nicotinamide] |  |  | 3 | 126
4 | N#Cc1cnn2c(-c3cc(NC45CCC(O)(CC4)CC5)c(C(=O)NCc4ccc[nH]c4=O)cn3)ccc2c1 [Example 624, 6-(3-cyanopyrrolo[1,2-b]pyridazin-7-yl)-4-((4-hydroxybicyclo[2.2.2]octan-1-yl)amino)-N-((2-oxo-1,2-dihydro-pyridin-3-yl)methyl) nicotinamide] | 3 | 1640 |  | 
5 | CC(C)(O)[C@H](F)CNC(=O)c1cnc(-c2ccc3cc(C#N)cnn23)cc1Nc1cccnn1 [Example 588, (R)-6-(3-cyanopyrrolo[1,2-b]pyridazin-7-yl)-N-(2-fluoro-3-hydroxy-3-methylbutyl)-4-(pyridazin-3-ylamino)nicotinamide] | 3 | 412 |  | 
6 | N#Cc1cnn2c(-c3cc(NC45CCC(O)(CC4)CC5)c(C(=O)NCC(F)(F)C(=O)N4CC(F)(F)C4)cn3)ccc2c1 [Example 961, 6-(3-cyanopyrrolo[1,2-b]pyridazin-7-yl)-N-(3-(3,3-difluoroazetidin-1-yl)-2,2-difluoro-3-oxopropyl)-4-((4-hydroxybicyclo[2.2.2]octan-1-yl)amino)nicotinamide] |  |  | 2 | 382
7 | CC(C)(O)[C@H](F)CNC(=O)c1cnc(-c2ccc3cc(C#N)cnn23)cc1Nc1cnn([C@H]2CCNC2)c1 [Example 223, 6-(3-cyanopyrrolo[1,2-b]pyridazin-7-yl)-N-((R)-2-fluoro-3-hydroxy-3-methylbutyl)-4-((1-((S)-pyrrolidin-3-yl)-1H-pyrazol-4-yl)amino) nicotinamide] |  | 13 | < 1 | 
8 | CC(C)Nc1cc(-c2ccc3cccnn23)ncc1C(=O)NC[C@@H](F)C(C)(C)O [Example 817, (R)-N-(2-fluoro-3-hydroxy-3-methylbutyl)-4-(isopropyl-amino)-6-(pyrrolo[1,2-b]pyridazin-7-yl)nicotinamide] |  |  | 6 | 165
9 | Cn1cc(CNC(=O)c2cnc(-c3ccc4cc(C#N)cnn34)cc2NC23CCC(O)(CC2)CC3)cn1 [Example 926, 6-(3-cyanopyrrolo[1,2-b]pyridazin-7-yl)-4-((4-hydroxybicyclo[2.2.2]octan-1-yl)amino)-N-((1-methyl-1H-pyrazol-4-yl)methyl)nicotinamide] |  |  | 2 | 192
10 | CC(=O)NC12CC(Nc3cc(-c4ccc5cc(C#N)cnn45)ncc3C(=O)NC[C@@H](F)C(C)(C)O)(C1)C2 [Example 508, (R)-4-((3-acetamidobicyclo[1.1.1]pentan-1-yl)amino)-6-(3-cyanopyrrolo[1,2-b]pyridazin-7-yl)-N-(2-fluoro-3-hydroxy-3-methyl-butyl)nicotinamide] | < 1 | 22 |  | 
11 | CNC(=O)c1cnc(-c2ccc3cc(C#N)cnn23)cc1NC12CC(C1)C2 [Example 489, 4-(bicyclo[1.1.1]pentan-1-ylamino)-6-(3-cyano-pyrrolo[1,2-b]pyridazin-7-yl)-N-methylnicotinamide] | 2 | 121 |  | 
12 | CC(C)(O)[C@H](F)CNC(=O)c1cnc(-c2ccc3cc(C#N)cnn23)cc1NC1C2CCC1CN(S(C)(=O)=O)C2 (stereo partly drawn) [Example 31, 6-(3-cyanopyrrolo[1,2-b]pyridazin-7-yl)-N-((R)-2-fluoro-3-hydroxy-3-methylbutyl)-4-((3-(methylsulfonyl)-3-azabicyclo[3.2.1]octan-8-yl)amino)nicotinamide] |  | 757 | 16 | 
13 | COC(=O)NC[C@H]1C[C@H](Nc2cc(-c3ccc4cc(C#N)cnn34)ncc2C(=O)NC2CCC(NC(=O)C3CC3)CC2)C1 (stereo partly drawn) [Example 830, methyl (((1R,3r)-3-((2-(3-cyanopyrrolo[1,2-b]pyridazin-7-yl)-5-(((1r,4R)-4-(cyclopropanecarboxamido)cyclohexyl)carbamoyl)pyridin-4-yl)amino)cyclobutyl)methyl)carbamate] |  |  | < 1 | 23
14 | Cc1ncoc1[C@H]1CC[C@H](Nc2cc(-c3ccc4cc(C#N)cnn34)ncc2C(=O)NC[C@@H](F)C(C)(C)O)CC1 [Example 631, 6-(3-cyanopyrrolo[1,2-b]pyridazin-7-yl)-N-((R)-2-fluoro-3-hydroxy-3-methylbutyl)-4-(((1r,4R)-4-(4-methyloxazol-5-yl)cyclohexyl)amino) nicotinamide] | 2 | 21 |  | 
15 | COC(=O)NC12CCC(Nc3cc(-c4ccc5cc(C#N)cnn45)ncc3C(=O)NC3CCC(NC(=O)C4CC4)CC3)(CC1)CC2 (stereo not shown) [Example 271, methyl (4-((2-(3-cyano-pyrrolo[1,2-b]pyridazin-7-yl)-5-((4-(cyclopropane-carboxamido)cyclohexyl)carbamoyl)pyridin-4-yl)amino)bicyclo[2.2.2]octan-1-yl)carbamate] |  | 38 | 1 | 
16 | CC(C)(O)[C@H](F)CNC(=O)c1cnc(-c2ccc3cc(C#N)cnn23)cc1N[C@H]1C[C@H](C(C)(C)O)C1 [Example 548, 6-(3-cyanopyrrolo[1,2-b]pyridazin-7-yl)-N-((R)-2-fluoro-3-hydroxy-3-methylbutyl)-4-(((1r,3R)-3-(2-hydroxypropan-2-yl)cyclobutyl)amino) nicotinamide] | 1 | 22 |  | 
17 | CNC(=O)C12CCC(Nc3cc(-c4ccc5cc(C#N)cnn45)ncc3C(=O)NC[C@@H](F)C(C)(C)O)(CC1)CC2 [Example 416, 6-(3-cyanopyrrolo[1,2-b]pyridazin-7-yl)-N-((R)-2-fluoro-3-hydroxy-3-methylbutyl)-4-((4-(methylcarbamoyl)bicyclo[2.2.2]octan-1-yl)amino)nicotinamide] | 1 | 16 |  | 
18 | CC(C)Nc1cc(-c2ccc3cc(C#N)cnn23)ncc1C(=O)NC1CC2(CC(=O)C2)C1 [Example 152, 6-(3-cyanopyrrolo[1,2-b]pyridazin-7-yl)-4-(isopropylamino)-N-(6-oxospiro[3.3]heptan-2-yl)nicotinamide] |  | 191 | 2 | 
19 | CC(C)(O)[C@H](F)CNC(=O)c1cnc(-c2ccc3cc(C#N)cnn23)cc1Nc1cnc(N)nc1 [Example 658, (R)-4-((2-aminopyrimidin-5-yl)amino)-6-(3-cyano-pyrrolo[1,2-b]pyridazin-7-yl)-N-(2-fluoro-3-hydroxy-3-methylbutyl)nicotinamide] | < 1 | 37 |  | 
20 | CCCc1nccc(Nc2cc(-c3ccc4cc(C#N)cnn34)ncc2C(=O)NC[C@@H](F)C(C)(C)O)n1 [Example 843, (R)-6-(3-cyanopyrrolo[1,2-b]pyridazin-7-yl)-N-(2-fluoro-3-hydroxy-3-methylbutyl)-4-((2-propyl-pyrimidin-4-yl)amino)nicotinamide] |  |  | 1 | 137
21 | COc1cc(Nc2cc(-c3ccc4cc(C#N)cnn34)ncc2C(=O)NC[C@@H](F)C(C)(C)O)ccn1 [Example 598, (R)-6-(3-cyano-pyrrolo[1,2-b]pyridazin-7-yl)-N-(2-fluoro-3-hydroxy-3-methyl-butyl)-4-((2-methoxy-pyridin-4-yl)amino) nicotinamide] | < 1 | 106 |  | 
22 | COC(=O)NC(C)(C)c1ccc(Nc2cc(-c3ccc4cc(C#N)cnn34)ncc2C(=O)NC[C@@H](F)C(C)(C)O)cc1 [Example 214, (R)-methyl(2-(4-((2-(3-cyanopyrrolo[1,2-b]pyridazin-7-yl)-5-((2-fluoro-3-hydroxy-3-methylbutyl)carbamoyl)pyridin-4-yl)amino)phenyl)propan-2-yl)carbamate] |  | 36 | 3 | 
23 | COCCCNc1cc(-c2ccc3cc(C#N)cnn23)ncc1C(=O)NC[C@@H](F)C(C)(C)O [Example 133, (R)-6-(3-cyanopyrrolo[1,2-b]pyridazin-7-yl)-N-(2-fluoro-3-hydroxy-3-methylbutyl)-4-((3-methoxypropyl)amino) nicotinamide] |  | 91 | 1 | 
24 | CC(C)Nc1cc(-c2ccc3cc(C#N)cnn23)ncc1C(=O)NC1CCC(NC(=O)C2(C)COC2)CC1 (stereo not shown) [Example 134, 6-(3-cyanopyrrolo[1,2-b]pyridazin-7-yl)-4-(isopropylamino)-N-((1r,4r)-4-(3-methyloxetane-3-carboxamido)cyclohexyl)nicotinamide] |  | 101 | 1 | 
25 | CC(C)(O)[C@H](F)CNC(=O)c1cnc(-c2ccc3cc(C#N)cnn23)cc1Nc1ccc(-c2cn[nH]c2)cn1 [Example 956, (R)-4-((5-(1H-pyrazol-4-yl)pyridin-2-yl)amino)-6-(3-cyanopyrrolo[1,2-b]pyridazin-7-yl)-N-(2-fluoro-3-hydroxy-3-methyl-butyl)nicotinamide] |  |  | < 1 | 31
26 | CN1CCN(C(=O)CNC(=O)c2cnc(-c3ccc4cc(C#N)cnn34)cc2NC23CCC(O)(CC2)CC3)CC1 [Example 789, 6-(3-cyanopyrrolo[1,2-b]pyridazin-7-yl)-4-((4-hydroxybicyclo[2.2.2]octan-1-yl)amino)-N-(2-(4-methylpiperazin-1-yl)-2-oxoethyl)nicotinamide] | < 1 | 20 |  | 
